Here are results for 31 compounds from patent US9090658B2, “Base-substituted benzylamine analogs for use as coagulation factor Xa inhibitors, the production and use thereof” (The Medicines Company (Leipzig) GmbH, priority 2003, dated 2015).

Counter-ions that a name gives are not always drawn.

One assay addresses F Xa. Conditions: prior art, literature values; cited from earlier work.
In a further assay the target is Thrombin (UniProt P00735). Kind of assay: Determination of the inhibitory constants for thrombin (method of Stürzebecher et al. 1997). In kind it is biochemical. An excerpt:
The Ki values are the average of at least three determinations.

A further assay concerns the target T1, factor Xa (Bos taurus, UniProt P00743).
T1 construct: purchased Diagnostic Reagents Ltd, Thame, GB
Put plainly: Determination of the inhibitory constants for factor Xa (chromogenic substrate Moc-D-Nle-Gly-Arg-pNA, Dixon method). In kind it is biochemical, bovine. The conditions noted are these: for Ki: bovine factor Xa, 25° C., pH 8.0, average of at least three determinations. Here is the method:
Determination of the inhibitory Effect
To determine the inhibitory effect, 200 μl of this buffer (0.05 M 0.154 M NaCl, 5% Ethanol, pH 8.0; contains the inhibitor), 25 μl of substrate (Moc-D-Nle-Gly-Arg-pNA in H2O; Pentapharm Ltd., Basle, Switzerland) and 50 μl of factor Xa (bovine, Diagnostic Reagents Ltd, thame, GB) were incubated at 25° C. After 3 min, the reaction was stopped By adding 25 μl of acetic acid (50%), and the absorption at 405 nm was determined using a Microplate Reader (MR 5000, Dynatech, Denkendorf, Germany). The Ki values were Founder by the Dixon method (boichem. J. 55, 170-171, 1953) by linear regression using a Computer program. The Ki values are the average of at least three determinations. The Thrombin inhibitions was determined in analogy to a method described earlier (Stürzebecher et al., J. Med. Chem. 40, 3091-3099, 1997).

As a reminder, the Ki is the dissociation constant of the complex between target and ligand, obtained from inhibition or displacement.

T1 sequence (P00743 234-492 limits assumed): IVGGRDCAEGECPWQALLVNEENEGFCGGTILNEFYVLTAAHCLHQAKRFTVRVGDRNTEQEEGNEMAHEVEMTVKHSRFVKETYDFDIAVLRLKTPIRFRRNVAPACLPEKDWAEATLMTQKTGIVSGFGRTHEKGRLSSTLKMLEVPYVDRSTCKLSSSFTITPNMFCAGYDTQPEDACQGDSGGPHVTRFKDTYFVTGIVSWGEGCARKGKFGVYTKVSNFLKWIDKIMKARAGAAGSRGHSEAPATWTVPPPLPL
T1 sequence (P00743 41-180 partner limits assumed): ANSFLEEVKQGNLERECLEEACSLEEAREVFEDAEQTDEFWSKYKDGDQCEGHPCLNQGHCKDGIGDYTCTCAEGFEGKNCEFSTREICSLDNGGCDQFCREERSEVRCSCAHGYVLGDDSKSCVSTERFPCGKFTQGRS

On to `N=C(N)c1ccc(C=C2CCCCC(=Cc3ccc(C(=N)N)cc3)C2=O)cc1` [BABCH], for which the inhibitory constant (Ki) at F Xa is 13 nM.
For the compound `N=C(N)c1ccc(CNC(=O)[C@H](CCC(=O)O)NC(=O)[C@@H](CCc2ccncc2)NS(=O)(=O)Cc2ccc(O)cc2)cc1` [Compound 33], the Ki on Thrombin amounted to 100000 nM; at factor Xa it was 3.6 nM. In addition, at factor Xa, the “selectivity ratio SR (SR = Ki thrombin/Ki factor Xa)” value (from here on “selectivity ratio SR”) is recorded as 27778.
The corresponding values for `COC(=O)Cc1ccc(CS(=O)(=O)NC(CCc2ccncc2)C(=O)NCC(=O)NCc2ccc(C(=N)N)cc2)cc1` (stereo not shown) [Compound 44] are 3800 nM, 8.2 nM and 463.
`CC(C)(C)OC(=O)CC[C@H](NC(=O)[C@@H](CCc1ccc(O)cc1)NS(=O)(=O)Cc1ccc([N+](=O)[O-])cc1)C(=O)NCc1ccc(C(=N)N)cc1` [Compound 54]: the Ki on Thrombin turned out to be 690 nM; on factor Xa, 39 nM. Besides, the “selectivity ratio SR” value on factor Xa amounted to 18.
The corresponding values for `COC(=O)Cc1ccc(CS(=O)(=O)N[C@H](CCc2ccccc2)C(=O)NCC(=O)NCc2ccc(C(=N)N)cc2)cc1` [Compound 16] are 1800 nM, 38 nM and 47.
The like results for `N=C(N)c1ccc(CNC(=O)[C@H](CCC(=O)O)NC(=O)[C@@H](CCc2ccc(O)cc2)NS(=O)(=O)Cc2ccc([N+](=O)[O-])cc2)cc1` [Compound 43] were, in that order, 15000 nM, 7.5 nM and 2000.
The corresponding values for `N=C(N)c1ccc(CNC(=O)CNC(=O)[C@@H](/C=C/c2ccccc2)NS(=O)(=O)Cc2ccccc2)cc1` [Compound 40] are 1100 nM, 6.5 nM and 170.
Regarding `N=C(N)c1ccc(CNC(=O)[C@H](CCC(=O)O)NC(=O)[C@@H](CCc2ccccc2)NS(=O)(=O)Cc2cccc([N+](=O)[O-])c2)cc1` [Compound 56], affinity on Thrombin was put at a Ki of 13000 nM. In addition, at factor Xa, the “selectivity ratio SR” value was determined as 156 and the Ki was 83 nM.
Turning to `N=C(N)c1ccc(CNC(=O)[C@H](CCC(=O)NCc2ccccc2)NC(=O)[C@@H](CCc2ccncc2)NS(=O)(=O)Cc2ccccc2)cc1` [Compound 61], the affinity at Thrombin corresponds to a Ki of 1700 nM. Also, on factor Xa, the “selectivity ratio SR” value is on record as 250 and affinity was put at a Ki of 6.8 nM.
Regarding `CS(=O)(=O)N[C@H](CCc1ccccc1)C(=O)NCC(=O)NCc1ccc(C(=N)N)cc1` [Compound 62], the inhibition constant Ki on Thrombin was 1300 nM; at factor Xa, 1060 nM. Further, the “selectivity ratio SR” value on factor Xa is on record as 1.2.
For the compound `N=C(N)c1ccc(CNC(=O)[C@H](CO)NC(=O)[C@@H](CCc2ccncc2)NS(=O)(=O)Cc2ccccc2)cc1` [Compound 3a, Bzls-D,L-homoAla(4-Pyr)-Ser-4Amba×2 TFA], the Ki at Thrombin is 910 nM. Besides, at factor Xa, the “selectivity ratio SR” value worked out at 97 and the affinity, expressed as Ki, was 9.4 nM.
The corresponding values for `N=C(N)c1ccc(CNC(=O)CNC(=O)[C@@H](CCCc2ccccc2)NS(=O)(=O)Cc2ccccc2)cc1` [Compound 55] are 210 nM, 3 and 67 nM.
Regarding `N=C(N)c1ccc(CNC(=O)CNC(=O)[C@H](CCc2ccccc2)NS(=O)(=O)Cc2ccccc2)cc1` [Compound 12], affinity on Thrombin was put at a Ki of 11000 nM. Besides, at factor Xa, the “selectivity ratio SR” value is on record as 31 and the inhibition constant Ki came out at 360 nM.
With `N=C(N)c1ccc(CNC(=O)CNC(=O)[C@@H](C/C=C/c2ccccc2)NS(=O)(=O)Cc2ccccc2)cc1` [Compound 58], the inhibition constant (Ki) on Thrombin is 1800 nM; at factor Xa, 580 nM. The “selectivity ratio SR” value at factor Xa amounted to 3.1.
Consider `N=C(N)c1ccc(CNC(=O)[C@H](CO)NC(=O)C(CCc2ccncc2)NS(=O)(=O)Cc2ccncc2)cc1` (stereo partly drawn) [Compound 4, 4-PMs-D,L-homoAla(4-Pyr)-Ser-4Amba×3 acetate], for which the figures for the Ki at Thrombin and on factor Xa were 6300 nM and 97 nM, respectively. On factor Xa, the “selectivity ratio SR” value is reported as 65.
As to `N=C(N)c1ccc(CNC(=O)CNC(=O)[C@@H](CCc2ccccc2)NS(=O)(=O)Cc2ccc(O)cc2)cc1` [Compound 32], the Ki on Thrombin was 380 nM; on factor Xa, 3.6 nM. Besides, the “selectivity ratio SR” value at factor Xa is reported as 105.
Compound `Nc1ccc(CNC(=O)CNC(=O)C(CCc2ccncc2)NS(=O)(=O)Cc2ccccc2)cn1` (stereo not shown) [Compound 65] displayed an inhibition constant (Ki) at Thrombin of 100000 nM. On factor Xa, the “selectivity ratio SR” value was 833 and the Ki was 120 nM.
Compound `N=C(N)c1ccc(CNC(=O)CNC(=O)C(CCc2ccccn2)NS(=O)(=O)Cc2ccccc2)cc1` (stereo not shown) [Compound 25] yielded a Ki at Thrombin of 2000 nM. Moreover, on factor Xa, the “selectivity ratio SR” value came out at 952 and the Ki is 2.1 nM.
`CC(C)(C)OC(=O)CN[C@H](CCc1ccccc1)C(=O)NCC(=O)NCc1ccc(C(=N)N)cc1` [Compound 63] yielded a Ki on Thrombin of 1500 nM. Also, on factor Xa, the “selectivity ratio SR” value is given as 2.4 and the Ki was determined as 620 nM.
As for `N=C(N)c1ccc(CNC(=O)[C@H](CO)NC(=O)[C@@H](CCc2ccccc2)NS(=O)(=O)Cc2ccccc2)cc1` [Compound 15], at Thrombin, affinity was put at a Ki of 600 nM. At factor Xa, the “selectivity ratio SR” value is reported as 15 and the inhibition constant (Ki) is 40 nM.
The like results for `N=C(N)c1ccc(CNC(=O)CNC(=O)[C@@H](CCc2ccc(O)cc2)NS(=O)(=O)Cc2ccc(N)cc2)cc1` [Compound 27] were, in that order, 560 nM, 295 and 1.9 nM.
`N=C(N)c1ccc(CNC(=O)[C@H](CCCc2ccccc2)NC(=O)C(CCc2ccncc2)NS(=O)(=O)Cc2ccccc2)cc1` (stereo partly shown) [Compound 38] came in with an inhibition constant Ki on Thrombin of 180 nM. For the same compound, on factor Xa, the “selectivity ratio SR” value is listed as 30 and the inhibition constant Ki amounted to 6 nM.
Consider `N=C(N)c1ccc(CNC(=O)CNC(=O)[C@@H](CNc2ccncc2)NS(=O)(=O)Cc2ccccc2)cc1` [Compound 23], for which the affinity on Thrombin corresponds to a Ki of 2800 nM. At factor Xa, the “selectivity ratio SR” value is reported as 127 and the Ki turned out to be 22 nM.
`N=C(N)c1ccc(CNC(=O)CNC(=O)C(CCc2ccncc2)NS(=O)(=O)Cc2ccc(CC(=O)O)cc2)cc1` (stereo not shown) [Compound 49] came in with a Ki at Thrombin of 38000 nM. In addition, at factor Xa, the “selectivity ratio SR” value is 2923 and the affinity, expressed as Ki, was 13 nM.
As to `N=C(N)c1ccc(CNC(=O)CNC(=O)[C@@H](CCc2ccccc2)NS(=O)(=O)Cc2cccnc2)cc1` [Compound 9, 3-PMs-dhomoPhe-Gly-4Amba×2 TFA], the results for the Ki at Thrombin and on factor Xa were 5900 nM and 62 nM, respectively. In addition, the “selectivity ratio SR” value at factor Xa stood at 95.
For `CC(C)(C)OC(=O)CCC[C@H](NC(=O)[C@@H](CCc1ccccc1)NS(=O)(=O)Cc1ccccc1)C(=O)NCc1ccc(C(=N)N)cc1` [Compound 57], the inhibition constant (Ki) on Thrombin was 460 nM; on factor Xa, 130 nM. Further, the “selectivity ratio SR” value on factor Xa worked out at 3.5.
For the compound `N=C(N)c1ccc(CNC(=O)CNC(=O)[C@@H](CCc2ccccc2)NS(=O)(=O)Cc2ccncc2)cc1` [Compound 14], the Ki on Thrombin turned out to be 3600 nM. Moreover, at factor Xa, the “selectivity ratio SR” value is given as 45 and the inhibition constant (Ki) worked out at 80 nM.
At Thrombin, `N=C(N)c1ccc(CNC(=O)CNC(=O)C(CCc2ccncc2)NS(=O)(=O)Cc2ccc([N+](=O)[O-])cc2)cc1` (stereo not shown) [Compound 31] registered a Ki of 1900 nM. In addition, at factor Xa, the “selectivity ratio SR” value was found to be 543 and the affinity corresponds to a Ki of 3.5 nM.
The like results for `N=C(N)c1ccc(CNC(=O)CNC(=O)[C@@H](CCc2ccccc2)NS(=O)(=O)Cc2ccc(N)cc2)cc1` [Compound 29] were, in that order, 260 nM, 100 and 2.6 nM.
On Thrombin, `N=C(N)c1ccc(CNC(=O)CNC(=O)C(CCc2ccncc2)NS(=O)(=O)Cc2ccncc2)cc1` (racemic) [Compound 2, 4-PMs-D,L-homoAla(4-Pyr)-Gly-4Amba×3 Acetate] showed a Ki of 3200 nM. In addition, on factor Xa, the “selectivity ratio SR” value came out at 246 and the Ki was determined as 13 nM.
Turning to `N=C(N)c1ccc(CNC(=O)CNC(=O)C(CCc2ccncc2)NS(=O)(=O)Cc2ccccc2)cc1` (racemic) [Compound 1, Bzls-D,L-homoAla(4-Pyr)-Gly-4Amba×2 TFA], the Ki at Thrombin came out at 2000 nM; on factor Xa, 2.9 nM. The “selectivity ratio SR” value at factor Xa worked out at 690.
